Results: patent US9546139B2, “Pyridine carboxylic acid based compound used as a P2X1 and P2X3 receptor antagonist, a production method for the same and a composition comprising the same” (GWANGJU INSTITUTE OF SCIENCE AND TECHNOLOGY, priority 2010, dated 2017)

Columns and labels:
[1] = system: P2 receptor; conditions: conventional antagonist, stated shortcoming; cited from earlier work
[2] = molecular target: T1, human P2X3 receptor (Homo sapiens, UniProt P56373); test: Two-electrode voltage clamp, ATP-induced ion current in Xenopus oocytes expressing human P2X3; type: cell-based; conditions: for inhibition at 10 µM: Table 2, 10 μM compound, ion current induced by 2 μM ATP, mean ± SEM, n = 4, read-out: % inhibition hP2X3
T1 construct: expressed in transfected cells; host or cells: Xenopus oocytes (cRNA injected); cDNA from the Max-Planck Institute laboratory (Dr. W. Stuhmer and Dr. F. Soto)
T1 sequence (P56373 1-397): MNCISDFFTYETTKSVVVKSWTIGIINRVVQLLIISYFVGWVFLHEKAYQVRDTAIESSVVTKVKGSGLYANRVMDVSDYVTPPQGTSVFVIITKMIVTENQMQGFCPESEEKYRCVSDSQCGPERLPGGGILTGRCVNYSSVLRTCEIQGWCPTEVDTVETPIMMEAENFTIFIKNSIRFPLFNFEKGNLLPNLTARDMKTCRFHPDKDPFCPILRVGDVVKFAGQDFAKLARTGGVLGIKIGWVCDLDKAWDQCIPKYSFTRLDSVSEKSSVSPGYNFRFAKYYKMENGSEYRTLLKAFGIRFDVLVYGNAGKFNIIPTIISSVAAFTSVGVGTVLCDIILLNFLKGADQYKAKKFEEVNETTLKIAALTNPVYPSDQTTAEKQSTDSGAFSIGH
Description: Antagonistic Activity at Recombinant Mouse P2X1 and Human P2X3 Receptors
(§1) Xenopus oocytes were harvested and prepared with method as previously described in publications. Defolliculated oocytes were injected cytosolically with mouse P2X1 and human P2X3 receptor cRNA ([…], 1 μg/mL), respectively, incubated for 24 hrs at 18° C. in Barth's solution and kept for up to 12 days at 4° C. until used in electrophysiological experiments. ATP-activated membrane currents (Vh=−70 mV) were recorded from cRNA-injected oocytes using the twin-electrode voltage-clamp technique (Axoclamp 2B amplifier). Voltage recording (1-2 MΩ tip resistance) and current-recording microelectrodes (5 MΩ tip resistance) were filled with 3.0 M KCl. Oocytes were held in an electrophysiological chamber and superfused with Ringer's solution (5 mL/min, at 18° C.) containing (mM) NaCl, 110; KCl, 2.5; HEPES, 5; BaCl2, 1.8, adjusted to pH 7.5. ATP was superfused over the oocytes for 60-120s then washed out for a period of 20 min. For inhibition curves, data were normalized to the current evoked by ATP, at pH 7.5. Test substances were added for 20 min prior to ATP exposure; all peptides were tested for reversibility of their effects. The concentration required to inhibit the ATP response by 50% (IC50) was taken from Hill plots constructed using the formula: log(I/Imax−1), where I is the current evoked by ATP in the presence of an antagonist. Data are presented as mean±SEM (n=4) for the data from different batches of oocytes.

[3] = molecular target: T2, human P2X7 receptor (Homo sapiens, UniProt Q99572); test: Ethidium+ accumulation assay in human P2X7-expressing HEK293 cells; type: cell-based; conditions: 10 μM compound, ethidium+ accumulation induced by 6 μM BzATP, n = 3
T2 construct: EST clones containing full-length cDNAs of mouse P2X1 (clone ID: 4189541) and human P2X7 receptor (clone ID: 5286944); host or cells: HEK293
T2 sequence (Q99572 1-595): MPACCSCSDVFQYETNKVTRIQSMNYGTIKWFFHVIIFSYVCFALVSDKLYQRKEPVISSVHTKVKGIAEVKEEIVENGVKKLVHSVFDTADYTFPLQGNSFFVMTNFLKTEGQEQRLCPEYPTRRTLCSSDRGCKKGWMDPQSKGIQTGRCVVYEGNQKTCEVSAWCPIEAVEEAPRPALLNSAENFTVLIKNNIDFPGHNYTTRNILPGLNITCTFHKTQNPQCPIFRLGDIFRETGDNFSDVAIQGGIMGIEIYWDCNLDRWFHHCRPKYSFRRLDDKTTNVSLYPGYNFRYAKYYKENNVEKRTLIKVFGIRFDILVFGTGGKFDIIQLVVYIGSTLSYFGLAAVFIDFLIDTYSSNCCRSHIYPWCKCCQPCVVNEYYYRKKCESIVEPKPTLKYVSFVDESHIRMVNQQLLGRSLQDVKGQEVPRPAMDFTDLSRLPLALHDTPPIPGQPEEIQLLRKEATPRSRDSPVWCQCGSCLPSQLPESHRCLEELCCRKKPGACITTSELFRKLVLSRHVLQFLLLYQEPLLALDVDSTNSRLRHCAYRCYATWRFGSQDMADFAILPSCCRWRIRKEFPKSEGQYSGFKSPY
Description: 1-2. Ethidium^+ Accumulation Assay at Human P2X7 Receptors
Human P2X7-expressing HEK293 cells were grown as monolayer culture at 37° C. in a humidified atmosphere of 5% CO2, DMEM supplemented with 10% fetal bovine serum. Cells were harvested with treatment of Trypsin/EDTA solution, collected by centrifugation (200 g for 5 min).
The cells were resuspended at 2.5×10^6 cells/mL in assay buffers, consisting of (in mM) HEPES 10, KCl 140, glucose 5, EDTA 1 (pH 7.4), and then ethidium bromide (100 μM) was added. Cell suspensions were added to 96 well plates containing the P2X7 receptor agonist, ATP or BzATP, at 2×10^5 cells/wells. Plates were incubated at 37° C. for 120 min and cellular accumulation of ethidium^+ was determined by measuring fluorescence with Bio-Tek instrument FL600 fluorescent plate reader (excitation wavelength of 530 nm and emission wavelength of 590 nm). When the effects of antagonists, such as PPADS, KN62, and test peptides were studied, antagonists were treated together with agonist without pre-incubation.

[4] = molecular target: T3, mouse P2X1 receptor (Mus musculus, UniProt P51576); test: Two-electrode voltage clamp, ATP-induced ion current in Xenopus oocytes expressing mouse P2X1; type: cell-based; conditions: for inhibition at 10 µM: read-out: % inhibition mP2X1
T3 construct: EST clones containing full-length cDNAs of mouse P2X1 (clone ID: 4189541) and human P2X7 receptor (clone ID: 5286944); host or cells: Xenopus oocytes (cRNA injected)
T3 sequence (P51576 1-399): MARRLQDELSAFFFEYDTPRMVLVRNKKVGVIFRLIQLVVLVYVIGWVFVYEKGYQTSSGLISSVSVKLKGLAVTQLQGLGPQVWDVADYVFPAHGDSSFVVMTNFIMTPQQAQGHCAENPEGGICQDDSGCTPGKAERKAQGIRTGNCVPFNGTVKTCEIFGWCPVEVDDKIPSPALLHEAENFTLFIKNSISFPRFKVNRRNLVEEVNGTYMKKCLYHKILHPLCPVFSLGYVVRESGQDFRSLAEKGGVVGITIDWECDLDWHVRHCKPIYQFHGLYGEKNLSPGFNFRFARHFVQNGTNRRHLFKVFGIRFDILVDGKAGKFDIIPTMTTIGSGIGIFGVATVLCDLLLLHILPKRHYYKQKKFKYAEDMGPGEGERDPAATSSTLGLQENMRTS
Description: 1-1. Antagonistic Activity at Recombinant Mouse P2X1 and Human P2X3 Receptors
as §1

[5] = concentration-response curve, 2 μM ATP, mean of four observations, read-out: IC50 value
[6] = Table 2, 10 μM compound, ion current induced by 2 μM ATP, mean ± SEM, n = 4

Row | inhibition at 10 µM [2] | inhibition at 0.1 µM ([2]; concentration of 100 nM, receptor not stated in the sentence (follows FIG. 2B, human P2X3), read-out: % inhibition) | Hill coefficient ([2]; concentration-inhibitory curve, 2 μM ATP (FIG. 1C, FIG. 2B)) | IC50 [2, 5] | % inhibition hP2X7 [3] | % inhibition mP2X1 [4, 6] | inhibition at 10 µM [4, 6] | Hill coefficient ([4]; concentration-inhibitory curve, 2 μM ATP (FIG. 1B, FIG. 2A)) | IC50 [4, 5] | Structure (SMILES) | reversibility of blocking activity [1]
1 | – | – | – | – | – | – | – | – | – | Cc1nc(N=Nc2ccc(S(=O)(=O)O)cc2S(=O)(=O)O)c(COP(=O)(O)O)c(C=O)c1O [PPADS, pyridoxalphosphate-6-azophenyl-2′,4′-disulphonic acid] | irreversible blocking activity
2 | 68.9 ± 11.7% | 34% | −0.58±0.27 | 339 nM | inactive | 82.7 ± 6.0% | 82% | −1.00±0.09 | 186 nM | Cc1nc(CCc2ccc(C(=O)O)cc2)c(C(=O)O)c(C(=O)O)c1O [Compound 39, 2-[2-(4-Carboxy-phenyl)-ethyl]-5-hydroxy-6-methyl-pyridine-3,4-dicarboxylic acid] | –
3 | 42.2 ± 7.5% | – | – | – | inactive | – | 52 ± 7.1% | – | – | COc1ccc(CCc2nc(C)c(O)c(C(C)=O)c2C(=O)O)cc1 [Compound 46, 4-acetyl-5-hydroxy-2-(4-methoxyphenethyl)-6-methylnicotinic acid] | –
